Measured values: ChEMBL document CHEMBL4495565, “Cytopathic SARS-Cov2 screening on VERO-E6 cells in a large repurposing effort” (2020)

Columns and labels:
in vitro = settings: chlorocebus sabaeus, VERO-E6 cells (Vero C1008), uninfected, CC50
SARS-CoV-2 = assay: microbe, parasite or virus in culture; format: functional, organism-based, Chlorocebus sabaeus, Vero C1008; settings: Severe acute respiratory syndrome coronavirus 2, Vero C1008, 48 h

SMILES | CC50 at 48 h (in vitro) [µM] | IC50 (SARS-CoV-2) [µM]
O=C(Nc1ccc(Cl)c(Cl)c1)Nc1ccc(Cl)c(Cl)c1 | > 33 | –
O=C(NCCN1CCC2(CC1)C(=O)NCN2c1cccc(F)c1)c1ccc2ccccc2c1 | > 33 | –
CC(C)COCC(CN(Cc1ccccc1)c1ccccc1)N1CCCC1 (stereo not given) | 23.4 | –
O=[N+]([O-])c1ccc(NN=Cc2sc(N3CCOCC3)nc2-c2ccccc2)c(S(=O)(=O)Nc2ccccc2Cl)c1 | 0.43 | –
CN1CCN(CC/C=C2\c3ccccc3Sc3ccc(S(=O)(=O)N(C)C)cc32)CC1 | > 33 | –
O=C(CCCN1CCC2(CC1)C(=O)N(Cc1cccc(F)c1)CN2c1ccccc1)c1ccc(F)cc1 | 27.4 | –
Nc1c(C(=O)NCc2ccco2)c2nc3ccccc3nc2n1CCN1CCCCC1 | > 33 | 31.2
N=C(Nc1ccc(I)cc1)NC1C2CC3CC(C2)CC1C3 (stereo not given) | > 33 | –
O=C(O)c1ccc(N2C(=O)/C(=C/c3ccc(-c4ccc([N+](=O)[O-])cc4)o3)C=C2c2ccccc2)cc1 | 12.8 | > 33
COc1cc(/C=C2\SC(=O)NC2=O)ccc1Oc1ccc(C#N)cc1C(F)(F)F | 3.33 | > 33
CC(C)N1CCN(c2ccc(C(=O)c3c(-c4ccc(O)cc4)sc4cc(O)ccc34)cc2)CC1 | > 33 | –
CC(C)c1cnn2c(NCc3ccccc3)cc(NCCCCCCN)nc12 | > 33 | –
CC(C)c1cccc2c(-c3ccccc3)cc(-c3ccc(-c4ccc(C(=O)O)cc4)[nH]3)nc12 | > 33 | > 33
c1ccc(-c2ccc(CNc3nc(-c4ccccn4)nnc3-c3ccccc3)cc2)cc1 | 0.02 | 31.9
Nc1ccc(C(=O)Nc2cccc(-c3nc(N4CCOCC4)c4oc5ncccc5c4n3)c2)cn1 | 0.01 | –
Cc1cc([N+](=O)[O-])ccc1NS(=O)(=O)c1cc(Cl)ccc1Cl | 16.6 | > 33
COc1cc2c(NC3CCN(C(C)C)CC3)nc(N3CCC(F)(F)CC3)nc2cc1OCCCN1CCCC1 | > 33 | –
C/C(=C\c1ccc(C(=O)O)cc1)c1ccc2c(c1)C(C)(C)CCC2(C)C | 4.07 | > 33
COc1cc2ncnc(Nc3cccc(Br)c3)c2cc1OC | 13.2 | –
Nc1ncnc2c1ncn2[C@@H]1CC[C@@H](O)[C@H]1O | 15.7 | –

SMILES | CC50 at 48 h (in vitro) [µM] | IC50 (SARS-CoV-2) [µM]
Nc1cc2c3ccccc3ccc2c2ccccc12 | > 33 | 11.6
Nc1c[nH]c(=O)c2cc(-c3ccccc3)sc12 | > 33 | 5.26
CCN(CC)CCO[C@H]1CC[C@@]2(C)C(=CC[C@@H]3[C@@H]2CC[C@]2(C)C(=O)CC[C@@H]32)C1 | 3.43 | –
Cc1c(O)cccc1C(=O)NC(CSc1ccccc1)C(O)CN1CC2CCCCC2CC1C(=O)NC(C)(C)C (stereo not given) | > 33 | 14.3
CCN(CC)c1ccc2cc(-c3nc4ccccc4[nH]3)c(=O)oc2c1 | > 33 | 0.36
Cc1ccc(C(=O)Nc2cccc(C(F)(F)F)c2)cc1Nc1nc(-c2cccnc2)nc2c1cnn2C | 0.07 | –
Nc1ncc(-c2ccnc(Nc3ccncc3)n2)c(CC2CC2)n1 | 2.11 | –
CC(C)(O)CNc1ncc(-c2ccnc(Nc3ccnc(Cl)c3)n2)c(CC2CC2)n1 | 26.8 | –
CCCCn1c(NC(=O)c2cccs2)c(C#N)c2nc3ccccc3nc21 | – | 19.7
CCc1c(-c2ccc3[nH]ncc3c2)cnc(N)c1-c1ccc(O)cc1 | > 33 | > 33
Cc1ccc(Oc2nc3cc(-c4ccc(-c5ccccc5)cc4)c(Cl)cc3[nH]2)cc1C(=O)O | 0.03 | > 33
Cc1cc(N2C[C@@H](C)N[C@@H](C)C2)ncc1-c1ccc(-c2nc3c(ccn3C)c(=O)[nH]2)cc1 | 7.14 | > 33
N#Cc1cccc(C#N)c1-c1nc2c3ccc(Cl)cc3c3ccccc3c2[nH]1 | > 33 | –
O=C1C(=Cc2cccnc2)C(=O)c2ccccc21 | – | > 33
OCCNC1CCCc2c1[nH]c1ccc(-c3ccccc3)cc21 (stereo not given) | > 33 | –
CC(C)n1cnc2c(NCCc3ccc(O)cc3)nc(-c3csc4ccccc34)nc21 | 12.6 | > 33
O=S(=O)(NCC1CC1)c1ccc(Nc2nccc(N3CCCc4cc(O)ccc43)n2)cc1 | 0.74 | –
CCN(CC)CCCCNc1ncc2cc(-c3c(Cl)cccc3Cl)c(NC(=O)NC(C)(C)C)nc2n1 | 12.7 | > 33
CC1(N2CCC(n3c([C@@H]4CCCNC4)nc4ccccc43)CC2)CCCCCCC1 | > 33 | –
